Laboratory results: ChEMBL document CHEMBL1201862, “PubChem BioAssay data set” (2004)
The source made the active and inactive calls.

Assays:
HeLa = experiment: viability loss in HeLa cells – cell-based, ATP luminescence, cherry-pick samples, cytotoxicity control, dose response (AID 687004); assay type: functional; details: Homo sapiens
[1] = biological target: Delta-type opioid receptor (Homo sapiens, UniProt P41143); experiment: Late-stage results from the probe development effort to identify antagonists of OPRK1: fluorescence-based cell-based dose response OPRD1 counterscreen.; assay type: functional
Chain of Delta-type opioid receptor (P41143 whole entry): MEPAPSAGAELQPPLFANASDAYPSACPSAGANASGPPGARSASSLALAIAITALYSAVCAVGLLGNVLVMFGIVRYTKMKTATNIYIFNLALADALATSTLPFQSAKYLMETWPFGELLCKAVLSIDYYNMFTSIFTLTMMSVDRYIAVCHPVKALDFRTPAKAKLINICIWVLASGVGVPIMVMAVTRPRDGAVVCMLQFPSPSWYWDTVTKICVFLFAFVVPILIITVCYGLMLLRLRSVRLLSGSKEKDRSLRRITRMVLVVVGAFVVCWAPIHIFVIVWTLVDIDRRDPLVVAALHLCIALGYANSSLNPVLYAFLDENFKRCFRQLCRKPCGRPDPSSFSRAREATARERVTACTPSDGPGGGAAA

Mu-type opioid receptor = Mu-type opioid receptor (Homo sapiens, UniProt P35372); experiment: Late-stage results from the probe development effort to identify antagonists of OPRK1: luminescence-based cell-based dose response OPRM1 counterscreen.; assay type: functional
Chain of Mu-type opioid receptor (P35372 whole entry): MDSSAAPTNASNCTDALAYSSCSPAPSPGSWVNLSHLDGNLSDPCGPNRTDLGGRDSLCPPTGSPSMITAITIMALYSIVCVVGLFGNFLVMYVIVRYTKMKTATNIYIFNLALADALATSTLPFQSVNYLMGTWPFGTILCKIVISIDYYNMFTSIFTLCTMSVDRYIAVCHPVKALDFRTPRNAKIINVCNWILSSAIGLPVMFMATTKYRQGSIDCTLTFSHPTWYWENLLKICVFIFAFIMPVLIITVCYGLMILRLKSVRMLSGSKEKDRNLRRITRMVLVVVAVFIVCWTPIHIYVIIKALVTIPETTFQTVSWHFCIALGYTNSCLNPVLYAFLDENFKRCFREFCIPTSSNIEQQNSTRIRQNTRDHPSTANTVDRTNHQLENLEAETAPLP

[2] = A Cell-Based Confirmatory Screen for Compounds that Inhibit VEEV, TC-83 (8).; assay type: functional
[3] = A Cell-Based Confirmatory Screen for Compounds that Inhibit VEEV, TC-83 (6).; assay type: functional
[4] = HeLa cell viability loss – plate reader, dry powder, cytotoxicity control, dose response (AID 651946); assay type: functional, cell-based
[5] = luciferase reporter signal suppression in cells – H4 neuroglioma cells, luminescence, dose response (AID 1990); assay type: functional, cell-based
[6] = luciferase reporter signal reduction – luminescence, H4-C neuroglioblastoma cells, dose response (AID 2458); assay type: functional, cell-based;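 also: H4 neuroglioblastoma cells stably carrying a luciferase reporter gene fusion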
[7] = test system: Streptococcus sp. 'group A'; experiment: Streptococcus pyogenes SK(-)GAS viability under kanamycin – luminescence, BacTiterGlo, confirmation, counter-screen for streptokinase expression inhibitor project, dose response (AID 1900); assay type: functional, organism-based
BJ [8] = experiment: BJ-TERT fibroblast viability loss – cell-based, RAS-independent, luminescence, dose response (AID 1933); assay type: functional; details: Homo sapiens
cells = assay type: functional, cell-based
[9] = Luminescence Cell-Based Dose Response HTS to Identify Inhibitors of 5'UTR Stem-Loop Driven Prion Protein mRNA Translation in H4 Neuroglioblastoma Cells. [Related pubchem assays: 1827 (Project Summary), 1813 (Primary HTS)]; assay type: functional
[10] = alpha-synuclein stem-loop luciferase translation blockers – H4 neuroglioma cells, luminescence, confirmation (AID 1988); assay type: functional, cell-based
Streptokinase A = biological target: T1, Streptokinase A (Streptococcus pyogenes serotype M1, UniProt P10520); experiment: viability-normalized secreted streptokinase activity reduction – plasminogen activation absorbance, OD405, dose response (AID 1914); assay type: functional, Streptococcus pyogenes M1 GAS;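 also: secreted streptokinase activity via plasminogen activation per viability signal from cell pellet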
T1 sequence (P10520 whole entry): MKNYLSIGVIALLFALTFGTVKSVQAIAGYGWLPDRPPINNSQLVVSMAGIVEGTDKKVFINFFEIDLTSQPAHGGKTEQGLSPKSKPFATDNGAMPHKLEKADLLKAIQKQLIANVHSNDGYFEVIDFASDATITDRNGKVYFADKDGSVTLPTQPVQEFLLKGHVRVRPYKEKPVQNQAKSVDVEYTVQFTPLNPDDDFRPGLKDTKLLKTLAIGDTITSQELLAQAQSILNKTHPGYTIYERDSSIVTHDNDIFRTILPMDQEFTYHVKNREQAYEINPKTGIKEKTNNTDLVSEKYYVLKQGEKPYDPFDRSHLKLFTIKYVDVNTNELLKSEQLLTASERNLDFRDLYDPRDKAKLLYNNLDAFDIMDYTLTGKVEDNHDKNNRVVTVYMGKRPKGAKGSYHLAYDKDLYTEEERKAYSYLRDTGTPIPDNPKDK

BJ [11] = experiment: cells; assay type: functional, cell-based; details: Homo sapiens
BJ [12] = experiment: BJ-TERT-LT-ST fibroblast viability loss – cell-based, RAS-independent, luminescence, dose response (AID 1935); assay type: functional; details: Homo sapiens;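 also: BJ fibroblasts immortalized with TERT plus LT and ST oncogenes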
[13] = DRD fibroblast viability loss – cell-based, non-viral oncogenic, luminescence, dose response (AID 1934); assay type: functional; details: Homo sapiens
Streptococcus = experiment: GAS UMAA2166 growth inhibition – luminescence, BacTiterGlo, counter-screen for streptokinase expression inhibitor project, dose response (AID 1915); assay type: functional, organism-based;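 also: potency for reduction of bacterial viability or growth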
[14] = alpha-synuclein stem-loop translation blockers – luminescence, H4 neuroglioblastoma cells, dose confirmation, confirmation (AID 2454); assay type: functional, cell-based;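 also: H4 neuroglioblastoma cells carrying an alpha-synuclein 5'UTR luciferase reporter; potency for inhibition of the luciferase signal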
HEK293 = experiment: EBV LMP1 TES2 canonical NF-kB signalling blockers – cell-based, HEK293, luciferase, cherry-pick, dose response (AID 588343); assay type: functional; details: Homo sapiens
[15] = biological target: Heat shock protein HSP 90-alpha (Homo sapiens, UniProt P07900); assay type: functional, organism-based
BJ [16] = experiment: growth inhibition of engineered Ras-driven BJ cells – cell-based, alamar blue fluorescence, cherrypicked samples, dose response (AID 2631); assay type: functional; details: Homo sapiens;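 also: confirmatory dose-response assay in RAS-dependent BJ fibroblasts engineered with TERT, LT and ST, with cytotoxicity read by fluorescence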
INS1 = experiment: INS-1E survival protection against cytokine death – cell-based, luminescence, retest, dose response (AID 449756); assay type: functional; details: Rattus norvegicus;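 also: cell death triggered by IL-1 beta plus TNF-alpha plus IFN-gamma mixture; protective hits raise ATP signal compared with cytokine alone wells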
[17] = activation of miR-122 Renilla sensor silencing – cell-based, Huh7 psiCHECK-miR122, Renilla luciferase, cherry-picked, dose response (AID 651956); assay type: functional;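 also: huh7 hepatoma cells stably carrying a psiCHECK-2 miR-122 sensor plasmid; renilla luciferase signal reporting endogenous miR-122 activity after 48 h compound exposure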
[18] = general mammalian cell viability loss – inhibitor set, cherry-pick, set 2, cytotoxicity control for miR-122 modulator project, dose response (AID 720697); assay type: functional, cell-based
[19] = general mammalian cell viability loss – activator set, cherry-pick, cytotoxicity control for miR-122 modulator project, dose response (AID 720690); assay type: functional, cell-based;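 also: HEK293T human cells scored for general mammalian cytotoxicity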
[20] = biological target: 1-phosphatidylinositol 4,5-bisphosphate phosphodiesterase gamma-1 (Homo sapiens, UniProt P19174); experiment: Counterscreen for inhibitors of phospholipase C isozymes (PLC-B3): Fluorescence-based biochemical high throughput dose response assay to identify inhibitors of phospholipase C isozymes (PLC-gamma1).
Chain of 1-phosphatidylinositol 4,5-bisphosphate phosphodiesterase gamma-1 (P19174 whole entry): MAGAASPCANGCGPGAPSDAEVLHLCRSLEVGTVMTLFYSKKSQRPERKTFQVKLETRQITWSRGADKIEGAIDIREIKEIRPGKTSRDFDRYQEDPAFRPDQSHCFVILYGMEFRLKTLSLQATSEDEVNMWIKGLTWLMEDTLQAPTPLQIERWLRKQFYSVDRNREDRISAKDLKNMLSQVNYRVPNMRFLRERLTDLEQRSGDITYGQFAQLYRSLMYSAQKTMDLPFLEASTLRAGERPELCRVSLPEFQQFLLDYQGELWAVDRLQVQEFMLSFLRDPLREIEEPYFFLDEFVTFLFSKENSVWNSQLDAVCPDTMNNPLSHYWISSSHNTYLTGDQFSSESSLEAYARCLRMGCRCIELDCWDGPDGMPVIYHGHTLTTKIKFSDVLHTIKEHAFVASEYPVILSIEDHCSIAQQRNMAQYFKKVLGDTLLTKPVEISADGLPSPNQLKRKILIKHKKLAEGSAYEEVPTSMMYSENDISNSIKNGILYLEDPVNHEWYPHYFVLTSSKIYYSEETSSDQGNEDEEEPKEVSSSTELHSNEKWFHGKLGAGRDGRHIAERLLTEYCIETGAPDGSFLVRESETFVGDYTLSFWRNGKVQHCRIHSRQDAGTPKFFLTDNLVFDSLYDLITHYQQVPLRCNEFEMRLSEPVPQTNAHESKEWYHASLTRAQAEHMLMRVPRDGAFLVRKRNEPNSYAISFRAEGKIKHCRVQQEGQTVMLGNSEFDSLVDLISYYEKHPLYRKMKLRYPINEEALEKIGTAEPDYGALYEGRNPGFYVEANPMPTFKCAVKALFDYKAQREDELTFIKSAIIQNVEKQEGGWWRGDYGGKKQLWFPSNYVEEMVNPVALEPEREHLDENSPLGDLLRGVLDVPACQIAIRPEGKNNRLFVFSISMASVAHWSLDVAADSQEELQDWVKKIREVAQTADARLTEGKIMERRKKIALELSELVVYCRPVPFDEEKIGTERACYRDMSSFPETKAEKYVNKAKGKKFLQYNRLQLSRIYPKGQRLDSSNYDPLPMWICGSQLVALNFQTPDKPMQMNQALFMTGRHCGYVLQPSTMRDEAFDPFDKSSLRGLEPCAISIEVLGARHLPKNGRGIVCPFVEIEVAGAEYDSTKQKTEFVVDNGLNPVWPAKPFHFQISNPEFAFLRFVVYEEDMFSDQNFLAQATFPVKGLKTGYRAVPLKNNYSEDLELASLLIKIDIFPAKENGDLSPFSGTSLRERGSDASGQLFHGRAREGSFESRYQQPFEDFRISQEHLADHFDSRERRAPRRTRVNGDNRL

[21] = biological target: 1-phosphatidylinositol 4,5-bisphosphate phosphodiesterase beta-3 (Homo sapiens, UniProt Q01970); experiment: Fluorescence-based biochemical high throughput dose response assay to identify inhibitors of phospholipase C isozymes (PLC-B3).
Chain of 1-phosphatidylinositol 4,5-bisphosphate phosphodiesterase beta-3 (Q01970 whole entry): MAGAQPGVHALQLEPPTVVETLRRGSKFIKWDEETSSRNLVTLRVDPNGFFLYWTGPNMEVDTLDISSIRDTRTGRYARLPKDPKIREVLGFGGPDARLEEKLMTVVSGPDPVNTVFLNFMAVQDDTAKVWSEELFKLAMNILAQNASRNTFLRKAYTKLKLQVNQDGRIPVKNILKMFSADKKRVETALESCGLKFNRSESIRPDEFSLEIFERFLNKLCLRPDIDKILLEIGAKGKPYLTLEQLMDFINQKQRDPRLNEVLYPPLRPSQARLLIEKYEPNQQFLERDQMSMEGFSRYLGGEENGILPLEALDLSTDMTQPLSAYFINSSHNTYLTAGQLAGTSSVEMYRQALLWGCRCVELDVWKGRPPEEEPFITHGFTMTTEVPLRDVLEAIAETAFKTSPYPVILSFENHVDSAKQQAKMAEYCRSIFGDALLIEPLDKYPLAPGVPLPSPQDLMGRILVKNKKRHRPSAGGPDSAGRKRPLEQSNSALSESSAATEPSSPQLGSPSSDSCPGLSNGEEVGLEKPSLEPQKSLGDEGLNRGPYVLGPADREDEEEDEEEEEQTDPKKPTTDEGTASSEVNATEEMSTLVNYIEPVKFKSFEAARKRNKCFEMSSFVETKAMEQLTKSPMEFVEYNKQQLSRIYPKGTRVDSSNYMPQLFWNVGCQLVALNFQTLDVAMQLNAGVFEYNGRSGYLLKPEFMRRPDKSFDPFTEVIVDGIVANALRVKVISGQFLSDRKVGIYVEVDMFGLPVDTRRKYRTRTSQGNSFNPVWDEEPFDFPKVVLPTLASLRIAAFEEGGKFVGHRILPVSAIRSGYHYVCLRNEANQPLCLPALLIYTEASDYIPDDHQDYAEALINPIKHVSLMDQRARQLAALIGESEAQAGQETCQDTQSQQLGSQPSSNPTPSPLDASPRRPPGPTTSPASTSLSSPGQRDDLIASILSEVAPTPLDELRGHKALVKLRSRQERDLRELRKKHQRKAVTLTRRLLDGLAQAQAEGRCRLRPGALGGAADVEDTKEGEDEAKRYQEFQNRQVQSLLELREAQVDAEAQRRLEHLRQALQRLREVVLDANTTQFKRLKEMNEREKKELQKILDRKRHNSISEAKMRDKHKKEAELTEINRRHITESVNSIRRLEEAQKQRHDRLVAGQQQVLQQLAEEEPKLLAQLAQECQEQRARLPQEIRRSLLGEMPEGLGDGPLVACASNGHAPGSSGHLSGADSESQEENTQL

Compound: COc1cccc(S(=O)(=O)Nc2ccc3c(c2)OC[C@H](C)NC[C@@H](C)[C@H](OC)CN(C)C3=O)c1
- AC50 (HeLa): > 52 µM (inactive)

Compound: COC(=O)c1cc(Br)cnc1N1CCC(NC2CCCCC2OC)CC1 (stereo not drawn)
- IC50 [1]: > 50 µM (inactive)
- IC50 (Mu-type opioid receptor): 12 µM (inactive)

Compound: COc1cccc(-n2c(CN3CCNCC3)nc3ccc([N+](=O)[O-])cc3c2=O)c1
- IC50 [2]: 10.4 µM (active)
- IC50 [3]: 10.4 µM (active)

Compound: c1ccc(-c2nnc(SC(c3ccccc3)c3ccccc3)o2)cc1
- AC50 [4]: > 52 µM (inactive)

Compound: Cc1sc2ncnc(N/N=C/c3ccccc3O)c2c1C
- EC50 [5]: 7.52 µM (active)
- EC50 [6]: 1.17 µM (active)
- EC50 [7]: 1.97 µM (active)
- EC50 (BJ [8]): 5.5 µM (inconclusive)
- EC50 (cells): 1.22 µM (active)
- EC50 [9]: 20.5 µM (active)
- EC50 [10]: < 0.1 µM (active)
- EC50 (Streptokinase A): 8.21 µM (active)
- EC50 (BJ [11]): 4.2 µM (active)
- EC50 (BJ [12]): 5.79 µM (inconclusive)
- EC50 [13]: 3.5 µM (active)
- EC50 (Streptococcus): 6.53 µM (active)
- EC50 [14]: 0.993 µM (active)
- AC50 (HEK293): 9.16 µM (active)
- AC50 [15]: 2.1 µM (active)
- EC50 (BJ [16]): 4.53 µM (active)
- AC50 (INS1): 0.642 µM (active)
- AC50 [17]: 8.43 µM (active)
- AC50 [18]: 1.19 µM (active)
- AC50 [19]: 3.28 µM (active)

Compound: O=C(N/N=C/c1ccc(OC(=O)c2ccccc2)cc1)c1cccc(O)c1
- IC50 [20]: > 122 µM (inactive)
- IC50 [21]: > 122 µM (inactive)
